Results: EP0688218B1, “INTERLEUKIN-1 INHIBITOR” (OTSUKA PHARMACEUTICAL CO., LTD., priority 1993, dated 1994)

Experiments:
IL-1α = assay: Inhibition of LPS-stimulated IL-1α release in heparinized peripheral blood culture (ELISA); format: cell-based, human; settings: Dose 3 x 10^-5 g/ml; 10% heparinized peripheral blood from healthy volunteer; LPS 3.3 µg/ml; 18 - 24 hours
Experimental: (§1) Method: A 10% heparinized prepheral blood from healthy volunteer, a test compound and lipopolysaccharide (LPS, 3.3 µg/ml) were suspended in RPMI-1640 medium supplemented with penicillin 100 units/ml and streptomycin […], and the mixture was incubated in a 5% CO2 atmosphere at 37°C for 18 - 24 hours. The supernatant of the culture was collected by centrifugation.
(§2) The IL-1α and IL-1β isolated from cells by stimulation with LPS were measured by enzyme-linked immunoassay (ELISA). That is, 96-well ELISA plate was coated with a mouse monoclonal antibody against human IL - 1α or human IL-1β, followed by blocking treatment, and thereto was added a test sample and it was subjected to reaction. […] After removing the unbound POD-conjugated antibody by washing, a substrate solution (containing ortho-phenylenediamine and hydrogen peroxide) was added and subjected to reaction, and thereafter, the absorbance at 492 nm was measured, and thereby the amounts of IL-1α and IL-1β were measured based on each standard curve. The ratio (%) of inhibition of IL-1 release was calculated by the following equation: IL-1 release inhibitory ratio (%) = 100 x (1-T/C) [formula] wherein T means the amount of IL-1 in the supernatant of culture incorporated with the test compound, and C means the amount of IL-1 in the supernatant of culture added only with the solvent.

IL-1β = assay: Inhibition of LPS-stimulated IL-1β release in heparinized peripheral blood culture (ELISA); format: cell-based, human; settings: Dose 3 x 10^-5 g/ml; 10% heparinized peripheral blood from healthy volunteer; LPS 3.3 µg/ml; 18 - 24 hours
Experimental: as §1, §2

Cc1c(F)c(N2CCNC(C)C2)cc2c1c(=O)c(C(=O)O)cn2C1CC1 (stereo not shown) [Test compound 1, 7-(3-Methyl-1-piperazinyl)-1-cyclopropyl-6-fluoro-5-methyl-1,4-dihydro-4-oxoquinoline-3-carboxylic acid]
IL-1α release inhibitory ratio (IL-1α): 93% | IL-1β release inhibitory ratio (IL-1β): 96%

CC1CCc2c(N3CCC(O)CC3)c(F)cc3c(=O)c(C(=O)O)cn1c23 (stereo not shown) [Test compound 2, 9-Fluoro-8-(4-hydroxy-1-piperidinyl)-5-methyl-6,7-dihydro-1-oxo-1H,5H-benzo[ji]quinolidine-2-carboxylic acid]
IL-1α release inhibitory ratio (IL-1α): 82% | IL-1β release inhibitory ratio (IL-1β): 78%
